According to US11771636B2, “Composition for promoting hair growth comprising adiponectin-derived peptide” (JUNGJINHO EFFECT INC., priority 2018, dated 2023):

Columns and labels:
[1] = test system: human hair follicles-derived dermal papilla cells; experiment: MTT cell division and activation in dermal papilla cells; format: cell-based; details: peptide 0.5 μg/ml and 5 μg/ml, 48 hours, minoxidil 1 mM positive control
Method: (§1) Primary cultured human hair follicles-derived dermal papilla cells and outer root sheath cells were subcultured to passages 2 to 3, and then treated with minoxidil, which has been conventionally used as an agent for preventing hair loss and treating hair growth as a positive control at a concentration of 1 mM, and separately treated with the adiponectin-derived peptide of the present invention prepared in Example 1 at concentrations of 0.5 μg/ml and 5 μg/ml. After 48 hours, the activated living cells were stained with an MTT solution and compared with a negative control group, and the degree of division and activation of the cells was confirmed.

[2] = test system: human hair follicles-derived outer root sheath cells; experiment: MTT cell division and activation in outer root sheath cells; format: cell-based; details: peptide 0.5 μg/ml and 5 μg/ml, 48 hours, minoxidil 1 mM positive control
Method: as §1

## GLYYF (P5 peptide from adiponectin (GLYYF)) [adiponectin-derived 5-mer peptide]
[1]
  cell division of dermal papilla cells: more excellent effect than minoxidil
[2]
  cell division of outer root sheath cells: more excellent effect than minoxidil

## NIPGL (P10 peptide from adiponectin (NIPGL)) [adiponectin-derived 5-mer peptide]
[1]
  cell division of dermal papilla cells: more excellent effect than minoxidil
[2]
  cell division of outer root sheath cells: more excellent effect than minoxidil
